Assay results: US20250206707A1, “NOVEL COMPOUND INDUCING EXPRESSION OF ANTI-AGING GENE KLOTHO” (KLOTHO SCIENCES CO., LTD., priority 2022, published 2025)

Experiments:
[1] = system: human retinal pigment epithelial cells (ARPE); assay: Protective effect on retinal pigment epithelial cells against oxidative stress; assay type: cell-based; details: 2.5 μM compound, BSO 50 mM for 6 hours, Cyto X absorbance 450 nm, FIG. 7
Experimental: To determine the preventive or therapeutic effect of each KS compound of Example 1 on macular degeneration, the protection of retinal pigment epithelial cells against oxidative stress was determined.
First, human retinal pigment epithelial cells were tested using retinal pigment epithelial cells (ARPE) purchased from ATCC, USA. Equal numbers of 10,000 ARPE cells were added to each well, and after 18 hours of incubation, the cells were replaced with DMEM F-12 medium without serum (FBS).
Each KS compound was added at a concentration of 2.5 μM, and the cells were treated with buthionine sulfoximine (BSO) at a concentration of 50 mM for 6 hours to induce oxidative stress. To measure the viability of these cells, Cyto X (Cell viability assay kit) was added and the time-varying absorbance was measured at 450 nm.

[2] = system: intracellular reactive oxygen species (ROS) in renal tubule epithelial cells (RPTECs); assay: Analysis of intracellular reactive oxygen species (ROS) in RPTECs; assay type: cell-based, human; details: RPTEC cells, 2.5 µM compound, 6 h; FIG. 4
Experimental: Renal tubule epithelial cells (RPTECs) were treated with each KS compound of Example 1 to determine the changes in the amount of intracellular reactive oxygen species (ROS).
RPTEC cells in culture were incubated with 2.5 µM of each KS compound for 6 h. The amount of ROS present in the cells was measured by adding Reactive Oxygen Detection Reagents (Invitrogen) and incubating for 1 h. The change in fluorescence was measured using a spectrophotometer.
FIG. 4 is a graph showing the amount of ROS remaining in RPTEC cells. It was confirmed that the amount of ROS in the cells treated with KS103 and KS104 compounds was reduced by about 30% compared to the cells treated with solvent (DMSO) alone.

[3] = system: TXN, AKT1, NR4A3, NLRP3, FOXP3 genes; assay: Expression changes in oxidative stress-related genes (NGS) in aged RPTEC cells; assay type: cell-based, human; details: 7th passage RPTEC, 2.5 μM, 6 hours, compared with 4-passage RPTEC, FIG. 5, FIG. 6
Experimental: 2.5 μM of each KS compound of Example 1 was added to relatively aged 7th passage (#7) renal tubular epithelial cells (RPTEC) cells, cultured for 6 hours, mRNA was collected, and total gene expression was analyzed using a next generation sequencer (NGS). To confirm changes in gene expression due to aging, through gene expression comparison with relatively young 4-passage (#4) RPTEC cells, genes with increased expression in young cells (TXN, AKT1, NR4A3, NLRP3, FOXP3 genes) were confirmed. The expression levels of these genes in young cells were compared to the expression change values caused by treatment with the compounds of Example 1 (senescent cells were treated with the compounds of Example 1, respectively).

[4] = system: Human retinal epithelial cells (ARPE); assay: Cytotoxicity evaluation (EX-cytox absorbance); assay type: cell-based; details: different concentrations, 24 hours incubation, EX-cytox 1 hour, FIG. 3
Experimental: Human retinal epithelial cells (ARPE) in culture were treated with KS compounds of Example 1 at different concentrations and incubated for 24 hours, followed by a 1-hour reaction with EX-cytox from GOGEN, and the change in absorbance was measured.

[5] = system: klotho gene; assay: Klotho gene mRNA expression by PCR in RPTECs; assay type: cell-based, human; details: 6 hours exposure, FIG. 2
Experimental: Human renal tubular epithelial cells (RPTECs) were treated with each KS compound of Example 1 at different concentrations, and mRNA was collected from the cells 6 hours later, and the mRNA expression of the klotho gene was confirmed by PCR. Renal Proximal Tubular Epithelial Cells (RPTECs) were purchased from Lonza and cultured at 37° C., 5% CO2 and used in the experiments. Each KS compound was added to the medium of the cells and after 6 hours of exposure, RNA was isolated from the cells and converted to cDNA using reverse transcriptase and amplified by PCR method to determine the expression level. As a control, DMSO was added instead of the compound.
The primers used in the experiment are listed below.
The expression levels of the bands in the gel photographs were quantified using Image J and plotted on a graph. In the gel picture, the upper band represents the secreted form of klotho, and the lower band represents the membrane form of klotho.

[6] = Stability evaluation with human liver microsomes (MS/MS analysis); assay type: in vitro ADME; details: human microsomes 0.5 mg/ml, 1 μM compound, 30 min, 37° C., with NADPH; tolbutamide as control; FIG. 1
Experimental: Each KS compound in Example 1 was dissolved in 10 mM DMSO, and tolbutamide, used as a standard, was dissolved in methanol at a concentration of 10 mM.
In a glass test tube (13×100 mm), 0.1 M KH2PO4 (147.5 μl), 0.1 M MgCl2 (25 μl), and 50 μl of human […] microsomes (mixed-gender pool) at a concentration of 0.5 mg/ml purchased from Corning Life Science and each KS compound solution were mixed to a final 1 μM of each KS compound solution, pre-incubated for 3 min in a shaking water bath (37° C., 40 rpm), and then incubated for 30 min in the presence or absence of 10 mM NADPH, 25 μL.
Aliquots of 50 μl were taken before the reaction and after the reaction, and then the reaction was stopped by adding […] of acetonitrile and vortexed for 1 min. The mixture was centrifuged (4,000 rpm, 4° C.) for 20 minutes, and each supernatant was transferred to a new glass test tube and dried for 2 hours using a centrifugal concentrator. After ensuring complete drying, 200 μl of 40% acetonitrile was added to each glass test tube and resuspended by vortexing for 1 minute. The resuspension solution was centrifuged for 10 minutes (4,000 rpm, 4° C.) and 150 μl of the supernatant was taken for HPLC-UV analysis. The Agilent 1200 series was used for HPLC-UV analysis and the Agilent 6410 was used for MS/MS analysis. The conditions used for the analysis were as follows: […]

Row | microsomal stability [6] | Compound | protection against oxidative stress-induced cell death [1] | reduction of the amount of ROS in the cells compared to cells treated with solvent (DMSO) alone [2] | expression of oxidative stress-related genes in aged cells versus young cells [3] | cytotoxicity [4] | ability to express the klotho gene compared to KS101 as well as other fluorine-bound compounds [5] | expression effect on the klotho gene (mRNA, sum of secreted and membrane form bands) ([5]; different concentrations, Image J quantification)
1 |  | Fc1ccc2nc(Nc3ccc(F)c(F)c3)oc2c1 [KS103, N-(3,4-difluorophenyl)-6-fluorobenzo[d]oxazol-2-amine] | inhibited oxidative stress-induced cell death | about 30% |  |  |  | 
2 | best microsomal stability | Fc1ccc(Nc2nc3cc(F)c(F)cc3o2)cc1F [KS104, N-(3,4-difluorophenyl)-5,6-difluorobenzo[d]oxazol-2-amine] | inhibited oxidative stress-induced cell death | about 30% | induced to a greater extent than in young cells | lowest cytotoxicity | more than doubled | best expression effect
